Results: patent publication US9718782B2, “TrkA kinase inhibitors, compositions and methods thereof” (MERCK SHARP & DOHME CORP, priority 2013, dated 2017)

Target: T1, TrkA receptor (Homo sapiens, UniProt P04629)
T1 construct: host or cells: U2OS (PathHunter, 'TrkA p75' cells)
Test: DiscoverX PathHunter TrkA functional assay (NGF-stimulated U2OS cells)
Format: cell-based
Conditions: U2OS cells expressing TrkA-Prolink fusion and Shc1-EA; compound 1 hour, then EC80 NGF 3 hours; luminescence
Description: TrkA functional activity was measured using a DiscoverX PathHunter assay. In this assay, U2OS cells are express TrkA receptor as a fusion with the weakly complementing fragment of B-galactosidase, which DiscoverX calls “Prolink (PK)”; additionally, Shcl is fused with a larger fragment, which is called “Enzyme Acceptor (EA)”. Activation of the TrkA receptor, upon NGF addition, results in the kinase domain being phosphorylated, resulting in subsequent recruitment of Shcl-EA protein. That recruitment results in an active B-galactosidase enzyme that is detected by addition of a chemiluminescent substrate.
All reagents were purchased from DiscoverX, except for the receptor agonists (NGF, BDNF, NT3) which were purchased from Peprotech. Cells were expanded and frozen into cryovials (TrkA p75 @passage 13, 1.5×10^7 cells/vial; TrkC p75 @passage 11, 1.5×10^7 cells/vial in InVitrogen Recovery Cell Freezing media), and stored in the vapor phase of liquid nitrogen, and thawed immediately before use. Thawed cells were added to a 384-well plate (BD Falcon 384-well white/clear, TC surface 120 uL assay plates (353963), 20 uL of 0.375e6 cells/mL=>7500 cells/well), and allowed to incubate overnight. Compound (10 mM starting dose: 202.5 nL compound yielding 0.81% DMSO final in total assay volume and starting doses 81 uM) was added the following morning and allowed to incubate on cells for 1 hour. Then, 5 uL EC80 of agonist (NGF for TrkA; BDNF for TrkB; NT3 for TrkC) was added and allowed to incubate for 3 hours at room temperature. DiscoverX PathHunter detection reagent is added (12 uL to plate and components diluted in parts as per kit instructions) and the plate is further incubated for 1 hour in the dark. The plate is read via luminescence on the Perkin Elmer Envision.

T1 sequence (P04629 33-796): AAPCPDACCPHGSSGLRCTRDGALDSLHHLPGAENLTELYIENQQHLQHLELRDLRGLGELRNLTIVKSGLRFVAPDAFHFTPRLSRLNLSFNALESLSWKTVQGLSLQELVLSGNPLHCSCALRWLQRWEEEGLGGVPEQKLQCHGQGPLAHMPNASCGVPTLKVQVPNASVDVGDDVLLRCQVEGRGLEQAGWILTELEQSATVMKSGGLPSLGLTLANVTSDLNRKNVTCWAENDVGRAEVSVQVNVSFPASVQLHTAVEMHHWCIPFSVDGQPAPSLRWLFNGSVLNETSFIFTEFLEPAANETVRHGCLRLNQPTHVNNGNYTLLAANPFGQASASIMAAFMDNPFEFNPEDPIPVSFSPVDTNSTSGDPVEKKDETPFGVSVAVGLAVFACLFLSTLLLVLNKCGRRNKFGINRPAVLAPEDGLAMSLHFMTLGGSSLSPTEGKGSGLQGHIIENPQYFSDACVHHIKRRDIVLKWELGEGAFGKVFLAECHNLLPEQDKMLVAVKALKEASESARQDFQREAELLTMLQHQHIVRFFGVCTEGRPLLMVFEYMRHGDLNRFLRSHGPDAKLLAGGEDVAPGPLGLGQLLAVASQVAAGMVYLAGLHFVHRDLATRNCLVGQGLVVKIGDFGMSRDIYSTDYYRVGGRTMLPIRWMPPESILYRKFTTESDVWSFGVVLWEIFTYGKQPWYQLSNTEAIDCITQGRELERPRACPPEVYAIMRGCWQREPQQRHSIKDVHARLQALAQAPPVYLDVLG

Structure (SMILES)	IC50 [nM]
Cn1ccnc1-c1cc(NC(=O)NC2c3ccccc3-c3ccccc32)n(C)n1 [Compound 85, 1-(9H-fluoren-9-yl)-3-[1-methyl-3-(1-methyl-1H-imidazol-2-yl)-1H-pyrazol-5-yl]urea]	100
Cc1nnc(-c2cccc(NC(=O)NC3c4ccccc4-c4ccccc43)c2)n1C [Compound 86, 1-[3-(4,5-dimethyl-4H-1,2,4-triazol-3-yl)phenyl]-3-(9H-fluoren-9-yl)urea]	250
